The values that follow are results of earlier work, collected in patent publication US20180016637A1, “METHOD OF EVALUATING THE RESPONSE OF ATAXIA TELANGIECTASIA PATIENTS TO GLUCOCORTICOIDS TREATMENT” (EryDel S.p.A., priority 2015, published 2018).

The data set deals with lymphoblastoid cell lines from lymphocytes of A-T patients.

Each structure is given as a SMILES string.

For `C[C@@H]1C[C@H]2[C@@H]3CCC4=CC(=O)C=C[C@]4(C)[C@@]3(F)[C@@H](O)C[C@]2(C)[C@@]1(O)C(=O)COP(=O)(O)O` [Dexamethasone sodium phosphate], the “transcript induced in vitro” value is listed as “a transcript of about 1582 bp denominated ATMdexa1”.
